For 5 compounds, Polarity and solubility results are on record in patent US11497942B2, “Cosmetic or dermatological preparation comprising a combination of a dye and an anti-inflammatory active ingredient” (BEIERSDORF AG, priority 2003, dated 2022).

Series [1] is described as follows: Polarity of lipids and oils: interfacial tension towards water. Type of series: physicochemical.
Description: It has already been proposed to adopt interfacial tension towards water as a measure of the polarity index of an oil or of an oil phase. This means that the greater the polarity of the oil phase in question, the lower the interfacial tension between this oil phase and water. According to the invention, the interfacial tension is regarded as being one possible measure of the polarity of a given oil component.
For series [2] the following is noted: cited from earlier work.

Compound “Cyclopolydimethylsiloxan [Dow Corning Fluid 244]” had a Polarity in series [1] (mid-polar lipids) of 28.5 mN/m. Consider `C=CC(C)(C)c1cc(/C=C/C(=O)c2ccc(O)cc2)c(OC)cc1O` [licochalcone A], for which the solubility result in series [2] is “sparingly soluble”. In series [1] (mid-polar lipids), “Phenyltrimethicone [Silicone oil VP 1120]” came in with a Polarity of 22.7 mN/m. As for Cyclomethicone [DC Fluid 345], the Polarity in series [1] (mid-polar lipids) and in series [1] (silicone oils) was 28.5 mN/m in each case. `CCCCCCCC(=O)OC(=O)OC(=O)CCCCCCC` [Cetiol CC, Dicaprylyl Carbonate] had a Polarity in series [1] (nonpolar lipids) of 31.7 mN/m.
